Assay results from ChEMBL document CHEMBL5252635, “The Mycobacterium tuberculosis mycothiol S-transferase is divalent metal-dependent for mycothiol binding and transfer” (2023).

Columns and labels:
[1] = target: T1, Conserved protein (Mycobacterium tuberculosis) (UniProt O53728)
T1 sequence (whole entry): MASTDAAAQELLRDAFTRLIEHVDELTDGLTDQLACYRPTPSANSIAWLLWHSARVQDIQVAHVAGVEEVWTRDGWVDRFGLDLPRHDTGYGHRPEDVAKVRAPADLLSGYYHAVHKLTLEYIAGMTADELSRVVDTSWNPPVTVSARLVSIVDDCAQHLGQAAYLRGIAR
Description: Binding affinity to Mycobacterium tuberculosis MST assessed as melting temperature in presence of ferrous by differential scanning fluorimetry method

[2] = target: T1, Conserved protein (Mycobacterium tuberculosis); remark: listed apart in the source
Description: Binding affinity to Mycobacterium tuberculosis MST assessed as melting temperature in presence of cobalt by differential scanning fluorimetry method

[3] = target: T1, Conserved protein (Mycobacterium tuberculosis); remark: listed apart in the source
Description: Binding affinity to Mycobacterium tuberculosis MST assessed as change in melting temperature in presence of nickle by differential scanning fluorimetry method

[4] = target: T1, Conserved protein (Mycobacterium tuberculosis); remark: listed apart in the source
Description: Binding affinity to Mycobacterium tuberculosis MST assessed as melting temperature in presence of zinc by differential scanning fluorimetry method

[5] = target: T1, Conserved protein (Mycobacterium tuberculosis); remark: listed apart in the source
Description: Binding affinity to Mycobacterium tuberculosis MST assessed as change in melting temperature in presence of zinc by differential scanning fluorimetry method

[6] = target: T1, Conserved protein (Mycobacterium tuberculosis); remark: listed apart in the source
Description: Binding affinity to Mycobacterium tuberculosis MST assessed as change in melting temperature in presence of ferrous by differential scanning fluorimetry method

[7] = target: T1, Conserved protein (Mycobacterium tuberculosis); remark: listed apart in the source
Description: Binding affinity to Mycobacterium tuberculosis MST assessed as change in melting temperature in presence of cobalt by differential scanning fluorimetry method

[8] = target: T1, Conserved protein (Mycobacterium tuberculosis); remark: listed apart in the source
Description: Binding affinity to Mycobacterium tuberculosis MST assessed as melting temperature in presence of nickle by differential scanning fluorimetry method

[9] = target: T1, Conserved protein (Mycobacterium tuberculosis); remark: listed apart in the source
Description: Binding affinity to Mycobacterium tuberculosis MST assessed as melting temperature by differential scanning fluorimetry method

SMILES: CC(=O)N[C@@H](CS)C(=O)N[C@H]1[C@@H](O[C@@H]2[C@H](O)[C@H](O)[C@@H](O)[C@H](O)[C@H]2O)O[C@H](CO)[C@@H](O)[C@@H]1O
- Tm [1]: 62.2 °C
- Tm [2]: 65.1 °C
- ΔTm [3]: 9.9 °C
- Tm [4]: 71.9 °C
- ΔTm [5]: 12.9 °C
- ΔTm [6]: 3.2 °C
- ΔTm [7]: 6.1 °C
- Tm [8]: 68.9 °C
- Tm [9]: 59 °C
